GI50 and TGI data for nine compounds are collected here from PubChem BioAssay (NCI).

“And” between values parts separate entries of the source, which are not always exact repeats. Equal values may be shown once.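 1) Cells in 96-well plates. 2) Compound, 48 h, 5 concentrations. 3) Linear interpolation between surrounding doses. 4) Unreached endpoint = highest concentration. GI50 is the concentration that inhibits growth by half. Definition used: TGI = concentration required for complete inhibition of growth.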

Some test systems named below: SR leukemia; K-562 leukemia; HT29 colon; NCI-H226 lung; HOP-92 NSCLC; LOX IMVI melanoma; SF-295 CNS; OVCAR-3 ovarian; HCT-116 colon; MALME-3M melanoma.
Assay in all cases: NCI anticancer screen, dose series, 48 h

`CCOC(=O)/N=c1\ssc(Cl)c1Cl`: the GI50 is 0.414 µM with SR leukemia; 1.93 µM in the assay with K-562 leukemia; 4.43 µM in the assay with HT29 colon; 27.8 µM with NCI-H226 lung; 5.66 µM in the assay on HOP-92 NSCLC; 1.9 µM in the assay on LOX IMVI melanoma. Moreover, the GI50 was 16.7 µM in the assay with SF-295 CNS, 6.53 µM with OVCAR-3 ovarian and 3.35 µM in the assay with HCT-116 colon. Besides, the TGI was above 100 µM in the assay on SR leukemia; above 100 µM in the assay on K-562 leukemia; above 100 µM in the assay with HT29 colon; above 100 µM with NCI-H226 lung; above 100 µM with HOP-92 NSCLC; 3.99 µM in the assay with LOX IMVI melanoma. The TGI in the assay on SF-295 CNS was 33.2 µM; in the assay with OVCAR-3 ovarian, 20.9 µM; with HCT-116 colon, above 100 µM.
Consider `CC(C)(C)c1cc(C(=O)O)c(C(c2ccccc2)c2ccccc2C(=O)O)c(C(=O)O)c1` (stereo unspecified), for which the TGI in the assay on MALME-3M melanoma was above 100 µM; with SR leukemia, above 100 µM; with K-562 leukemia, above 100 µM; with HT29 colon, above 100 µM; in the assay on NCI-H226 lung it was 76.7 µM; in the assay with LOX IMVI melanoma, above 100 µM. For the same compound, the TGI in the assay on SF-295 CNS, with OVCAR-3 ovarian and in the assay with HCT-116 colon was above 100 µM throughout.
For the compound `COc1ccccc1-c1nccc(COc2ccccc2C[C@@H](Oc2ncnc3sc(-c4ccc(F)cc4)c(-c4ccc(OCCN5CCN(C)CC5)c(Cl)c4C)c23)C(=O)O)n1`, the GI50 in the assay on MALME-3M melanoma is 1.63 µM; in the assay with SR leukemia it was 0.034 µM; with K-562 leukemia it was 3.01 µM; with HT29 colon it was 2.65 µM; with NCI-H226 lung, 3 µM; in the assay with HOP-92 NSCLC, 1.41 µM. In addition, the GI50 with SF-295 CNS is 1.89 µM; with OVCAR-3 ovarian it was 2.51 µM; in the assay on HCT-116 colon it was 2.43 µM. In addition, the TGI was 3.37 µM in the assay on MALME-3M melanoma; 0.714 µM in the assay with SR leukemia; above 33.6 µM in the assay with K-562 leukemia; 7.09 µM in the assay with HT29 colon; 10.9 µM in the assay on NCI-H226 lung; 3.27 µM with HOP-92 NSCLC. Further, the TGI in the assay with SF-295 CNS is 3.91 µM; in the assay with OVCAR-3 ovarian, 6.99 µM; in the assay on HCT-116 colon, 6.55 µM.
In the case of `COc1cc2c(c(OC)c1OC)-c1ccc(SC)c(=O)cc1[C@@H](NC(=O)c1ccc(F)cc1)CC2`, the GI50 in the assay with MALME-3M melanoma was below 0.01 µM; in the assay on SR leukemia, 0.0167 µM and < 0.01 µM; with K-562 leukemia it was below 0.01 µM; in the assay on HT29 colon it was below 0.01 µM; in the assay with NCI-H226 lung, below 0.01 µM; with SF-295 CNS, below 0.01 µM. For the same compound, the GI50 with OVCAR-3 ovarian and in the assay on HCT-116 colon was below 0.01 µM in each case. Further, the TGI with MALME-3M melanoma was 91.1 µM; in the assay on SR leukemia, above 100 µM; in the assay with K-562 leukemia, above 100 µM; with HT29 colon, 0.0891 µM and < 0.01 µM; in the assay on NCI-H226 lung, 0.0744 µM and < 0.01 µM; in the assay on HOP-92 NSCLC, 0.0958 µM. For the same compound, the TGI is 0.0378 µM and < 0.01 µM in the assay on OVCAR-3 ovarian; below 0.01 µM with HCT-116 colon.
`Cc1cc(S(N)(=O)=O)c(S/C(=N\NS(=O)(=O)c2ccccc2)c2ccc(Cl)c(Cl)c2)cc1Cl`: the GI50 is 27.9 µM in the assay on SR leukemia; 32.9 µM in the assay on K-562 leukemia; 45.1 µM in the assay on NCI-H226 lung; 93.4 µM in the assay with HOP-92 NSCLC; 36.1 µM in the assay on LOX IMVI melanoma; 36.4 µM in the assay on SF-295 CNS. The GI50 in the assay on OVCAR-3 ovarian was 25.8 µM; with HCT-116 colon, 38 µM. The TGI with SR leukemia, in the assay with K-562 leukemia, in the assay on NCI-H226 lung, in the assay on HOP-92 NSCLC, with LOX IMVI melanoma and in the assay with SF-295 CNS was above 100 µM throughout. In addition, the TGI in the assay on OVCAR-3 ovarian was 72.7 µM; in the assay on HCT-116 colon it was above 100 µM.
Turning to `BrC(Br)([P+](c1ccccc1)(c1ccccc1)c1ccccc1)[P+](c1ccccc1)(c1ccccc1)c1ccccc1`, the TGI in the assay with MALME-3M melanoma turned out to be 26.2 µM; in the assay on SR leukemia, 56 µM; in the assay on HT29 colon, 31.9 µM; with NCI-H226 lung, 73 µM; in the assay on HOP-92 NSCLC, 31.2 µM; in the assay with LOX IMVI melanoma, 27.2 µM. Further, the results for the TGI in the assay on SF-295 CNS, in the assay on OVCAR-3 ovarian and in the assay on HCT-116 colon were above 100 µM, 28.7 µM and 46 µM, respectively.
For the compound `Cc1ccc(S(=O)c2ccc([N+](=O)[O-])c3nonc23)cc1` (stereo unspecified), the GI50 is 2.23 µM with MALME-3M melanoma; 3.39 µM with SR leukemia; 3.02 µM in the assay with K-562 leukemia; 4.08 µM with HT29 colon; 15.7 µM in the assay on NCI-H226 lung; 4.09 µM with HOP-92 NSCLC. Besides, the figures for the GI50 in the assay on LOX IMVI melanoma, in the assay on OVCAR-3 ovarian and in the assay with HCT-116 colon were 5.88 µM, 2.23 µM and 1.82 µM, respectively. The TGI was 5.12 µM with MALME-3M melanoma; above 100 µM in the assay on SR leukemia; 9.18 µM in the assay with K-562 leukemia; 22 µM in the assay on HT29 colon; 43.2 µM in the assay with NCI-H226 lung; 17.2 µM with HOP-92 NSCLC. Besides, the TGI in the assay on LOX IMVI melanoma was determined as 19.2 µM; in the assay with OVCAR-3 ovarian it was 4.78 µM; in the assay on HCT-116 colon it was 3.39 µM.
Take `N#Cc1c(-c2ccc(Cl)cc2)csc1NC(=O)Nc1cccc(C(F)(F)F)c1`: the GI50 was 2.41 µM in the assay on SR leukemia; 2.97 µM in the assay with K-562 leukemia; 2.5 µM in the assay with HT29 colon; 3.42 µM in the assay on NCI-H226 lung; 2.34 µM in the assay with HOP-92 NSCLC; 2.64 µM in the assay with LOX IMVI melanoma. For the same compound, the GI50 is 1.74 µM in the assay with SF-295 CNS, 2.73 µM in the assay with OVCAR-3 ovarian and 2.33 µM with HCT-116 colon. For the same compound, the TGI with SR leukemia came out at 8.41 µM; with K-562 leukemia, 12.2 µM; with HT29 colon, 10.5 µM; in the assay on NCI-H226 lung, 10.5 µM; in the assay with HOP-92 NSCLC it was 5.93 µM; in the assay on LOX IMVI melanoma, 9.48 µM. Besides, the TGI in the assay with SF-295 CNS worked out at 4.21 µM; with OVCAR-3 ovarian, 11.2 µM; with HCT-116 colon, 8.44 µM.
In the case of `CCCCOP1(=O)C=CC(Cl)=C(C)C1` (stereo unspecified), the TGI with MALME-3M melanoma is 47.5 µM; with SR leukemia it was 39.4 µM; in the assay with K-562 leukemia it was 50 µM; in the assay on HT29 colon, 45 µM; in the assay with NCI-H226 lung it was 41.9 µM; in the assay on HOP-92 NSCLC it was 54.5 µM. The TGI in the assay with SF-295 CNS was 39.6 µM; in the assay with OVCAR-3 ovarian, 77.7 µM; in the assay on HCT-116 colon, 46.9 µM.
